pIC50: −log10 of the molar value.

In this experiment the target is HIS-TGFβR1 T204D (Homo sapiens (Human), UniProt P36897, T204D). The experiment is described as follows: HTRF probe-displacement assay, HIS-TGFβR1 T204D. The experiment is classed as binding. The note with it: 1 hour at room temperature.
HIS-TGFβR1 T204D, sequence (P36897 34-503 T204D): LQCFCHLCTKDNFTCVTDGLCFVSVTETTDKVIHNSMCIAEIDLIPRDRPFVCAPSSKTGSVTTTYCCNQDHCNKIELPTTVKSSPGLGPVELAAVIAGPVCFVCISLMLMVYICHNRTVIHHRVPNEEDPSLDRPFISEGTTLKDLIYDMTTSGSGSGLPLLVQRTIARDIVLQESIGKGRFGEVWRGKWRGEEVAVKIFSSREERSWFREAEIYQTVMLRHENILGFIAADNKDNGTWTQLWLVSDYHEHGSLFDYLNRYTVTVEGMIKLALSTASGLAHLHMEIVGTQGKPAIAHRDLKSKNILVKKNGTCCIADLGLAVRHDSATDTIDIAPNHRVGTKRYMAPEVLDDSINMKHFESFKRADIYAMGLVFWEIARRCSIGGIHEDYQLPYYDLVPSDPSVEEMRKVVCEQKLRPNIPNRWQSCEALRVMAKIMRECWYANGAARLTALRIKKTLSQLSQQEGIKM
The term pIC50 denotes −log10 of the IC50, conventionally taken in molar units. Higher therefore signals a small IC50. With `C[C@@H]1CN(CCNC(=O)c2cnccc2Nc2nc(-c3ccccn3)nn3cccc23)C[C@H](C)O1` [Example 146, N-{2-[cis-2,6-dimethylmorpholin-4-yl]ethyl}-4-{[2-(pyridin-2-yl)pyrrolo[2,1-f][1,2,4]triazin-4-yl]amino}pyridine-3-carboxamide], the pIC50 is 6.77.

`O=C(NCCCN1CCS(=O)(=O)CC1)c1cnccc1Nc1nc(-c2ccccn2)nn2cccc12` [Example 148, N-[3-(1,1-dioxo-1,4-thiomorpholin-4-yl)propyl]-4-{[2-(pyridin-2-yl)pyrrolo[2,1-f][1,2,4]triazin-4-yl]amino}pyridine-3-carboxamide] had a pIC50 of 7.08.

`O=C(NCCCN1CCCC1=O)c1cnccc1Nc1nc(-c2ccccn2)nn2cccc12` [Example 149, N-[3-(2-oxopyrrolidin-1-yl)propyl]-4-{[2-(pyridin-2-yl)pyrrolo[2,1-f][1,2,4]triazin-4-yl]amino}pyridine-3-carboxamide] gave a pIC50 of 7.31.

`O=C(NCCCN1CCCC1)c1cnccc1Nc1nc(-c2ccccn2)nn2cccc12` [Example 150] gave a pIC50 of 7.80.

`O=C(NCCN1CCNCC1)c1cnccc1Nc1nc(-c2ccccn2)nn2cccc12` [Example 151, N-[2-(piperazin-1-yl)ethyl]-4-{[2-(pyridin-2-yl)pyrrolo[2,1-f][1,2,4]triazin-4-yl]amino}pyridine-3-carboxamide] gave a pIC50 of 7.31.

`Cc1cccc(-c2nc(Nc3ccncc3C(=O)NCCN3CCCC3)c3cccn3n2)n1` [Example 152, 4-{[2-(6-methylpyridin-2-yl)pyrrolo[2,1-f][1,2,4]triazin-4-yl]amino}-N-[2-(pyrrolidin-1-yl)ethyl]pyridine-3-carboxamide] gave a pIC50 of 8.28.

Consider `Cc1cccc(-c2nc(Nc3ccncc3C(=O)NCCN3CCS(=O)(=O)CC3)c3cccn3n2)n1` [Example 153, N-[2-(1,1-dioxo-1,4-thiomorpholin-4-yl)ethyl]-4-{[2-(6-methylpyridin-2-yl)pyrrolo[2,1-f][1,2,4]triazin-4-yl]amino}pyridine-3-carboxamide], for which the pIC50 is 7.66.

Compound `Cc1cccc(-c2nc(Nc3ccncc3C(=O)NCC3(O)CCN(C)CC3)c3cccn3n2)n1` [Example 154, N-[(4-hydroxy-1-methylpiperidin-4-yl)methyl]-4-{[2-(6-methylpyridin-2-yl)pyrrolo[2,1-f][1,2,4]triazin-4-yl]amino}pyridine-3-carboxamide] gave a pIC50 of 7.48.

As to `Cc1cccc(-c2nc(Nc3ccncc3C(=O)NCCN3CCCCC3)c3cccn3n2)n1` [Example 155, 4-{[2-(6-methylpyridin-2-yl)pyrrolo[2,1-f][1,2,4]triazin-4-yl]amino}-N-[2-(piperidin-1-yl)ethyl]pyridine-3-carboxamide], the pIC50 was 8.17.

With `Cc1cccc(-c2nc(Nc3ccncc3C(=O)NCC(C)(C)O)c3cccn3n2)n1` [Example 156, N-(2-hydroxy-2-methylpropyl)-4-{[2-(6-methylpyridin-2-yl)pyrrolo[2,1-f][1,2,4]triazin-4-yl]amino}pyridine-3-carboxamide], the pIC50 was 7.30.

As for `Cc1cccc(-c2nc(Nc3ccncc3C(=O)NC(C)(C)CO)c3cccn3n2)n1` [Example 157, N-(1-hydroxy-2-methylpropan-2-yl)-4-{[2-(6-methylpyridin-2-yl)pyrrolo[2,1-f][1,2,4]triazin-4-yl]amino}pyridine-3-carboxamide], the pIC50 was 7.47.

For the compound `Cc1cccc(-c2nc(Nc3ccncc3C(=O)NC[C@H](O)CO)c3cccn3n2)n1` [Example 158, N-[(2S)-2,3-dihydroxypropyl]-4-{[2-(6-methylpyridin-2-yl)pyrrolo[2,1-f][1,2,4]triazin-4-yl]amino}pyridine-3-carboxamide], the pIC50 was 8.10.

Compound `Cc1cccc(-c2nc(Nc3ccncc3C(=O)NCCCO)c3cccn3n2)n1` [Example 159, N-(3-hydroxypropyl)-4-{[2-(6-methylpyridin-2-yl)pyrrolo[2,1-f][1,2,4]triazin-4-yl]amino}pyridine-3-carboxamide] had a pIC50 of 8.32.

The compound `Cc1cccc(-c2nc(Nc3ccncc3C(=O)NCCCN3CCN(C)CC3)c3cccn3n2)n1` [Example 160, N-[3-(4-methylpiperazin-1-yl)propyl]-4-{[2-(6-methylpyridin-2-yl)pyrrolo[2,1-f][1,2,4]triazin-4-yl]amino}pyridine-3-carboxamide] gave a negative-log IC50 (pIC50) of 8.46.

As for `Cc1cccc(-c2nc(Nc3ccncc3C(=O)NC3CCOC3)c3cccn3n2)n1` (centres unmarked) [Example 161, 4-{[2-(6-methylpyridin-2-yl)pyrrolo[2,1-f][1,2,4]triazin-4-yl]amino}-N-(oxolan-3-yl)pyridine-3-carboxamide], the pIC50 was 7.55.

Regarding `Cc1cccc(-c2nc(Nc3ccncc3C(=O)N(C)CCN(C)C)c3cccn3n2)n1` [Example 162, N-[2-(dimethylamino)ethyl]-N-methyl-4-{[2-(6-methylpyridin-2-yl)pyrrolo[2,1-f][1,2,4]triazin-4-yl]amino}pyridine-3-carboxamide], the pIC50 was 6.96.

In turn, `Cc1cccc(-c2nc(Nc3ccncc3C(=O)N3CCOCC3)c3cccn3n2)n1` [Example 163, N-[2-(6-methylpyridin-2-yl)pyrrolo[2,1-f][1,2,4]triazin-4-yl]-3-(morpholine-4-carbonyl)pyridin-4-amine] had a pIC50 of 7.52.

Compound `Cc1cccc(-c2nc(Nc3ccncc3C(=O)NC3CCOCC3)c3cccn3n2)n1` [Example 164, 4-{[2-(6-methylpyridin-2-yl)pyrrolo[2,1-f][1,2,4]triazin-4-yl]amino}-N-(oxan-4-yl)pyridine-3-carboxamide] had a pIC50 of 7.12.

The compound `Cc1cccc(-c2nc(Nc3ccncc3C(=O)NC3COC3)c3cccn3n2)n1` [Example 165, 4-{[2-(6-methylpyridin-2-yl)pyrrolo[2,1-f][1,2,4]triazin-4-yl]amino}-N-(oxetan-3-yl)pyridine-3-carboxamide] showed a negative logarithm of the IC50 (pIC50) of 7.85.

`O=C(NCCCN1CCS(=O)(=O)CC1)c1cnccc1Nc1nc(-c2cccc(C(F)F)n2)nn2cccc12` [Example 168, 4-({2-[6-(difluoromethyl)pyridin-2-yl]pyrrolo[2,1-f][1,2,4]triazin-4-yl}amino)-N-[3-(1,1-dioxo-1,4-thiomorpholin-4-yl)propyl]pyridine-3-carboxamide] showed a pIC50 of 8.07.

`O=C(NCCCN1CCOCC1)c1cnccc1Nc1nc(-c2cccc(C(F)(F)F)n2)nn2cccc12` [Example 169, N-[3-(morpholin-4-yl)propyl]-4-({2-[6-(trifluoromethyl)pyridin-2-yl]pyrrolo[2,1-f][1,2,4]triazin-4-yl}amino)pyridine-3-carboxamide] showed a pIC50 of 7.35.

As for `O=C(NCCN1CCCC1)c1cnccc1Nc1nc(-c2cccc(C(F)(F)F)n2)nn2cccc12` [Example 170, N-[2-(pyrrolidin-1-yl)ethyl]-4-({2-[6-(trifluoromethyl)pyridin-2-yl]pyrrolo[2,1-f][1,2,4]triazin-4-yl}amino)pyridine-3-carboxamide], the pIC50 is 7.77.

As to `O=C(NCCN1CCCCC1)c1cnccc1Nc1nc(-c2cccc(C(F)(F)F)n2)nn2cccc12` [Example 171, N-[2-(piperidin-1-yl)ethyl]-4-({2-[6-(trifluoromethyl)pyridin-2-yl]pyrrolo[2,1-f][1,2,4]triazin-4-yl}amino)pyridine-3-carboxamide], the pIC50 is 6.92.
